The record followed here is US10933063B2 (priority 2017, dated 2021).

SMILES strings stand for the structures.

BTK, sequence (Q06187 whole entry, looked up, species assumed): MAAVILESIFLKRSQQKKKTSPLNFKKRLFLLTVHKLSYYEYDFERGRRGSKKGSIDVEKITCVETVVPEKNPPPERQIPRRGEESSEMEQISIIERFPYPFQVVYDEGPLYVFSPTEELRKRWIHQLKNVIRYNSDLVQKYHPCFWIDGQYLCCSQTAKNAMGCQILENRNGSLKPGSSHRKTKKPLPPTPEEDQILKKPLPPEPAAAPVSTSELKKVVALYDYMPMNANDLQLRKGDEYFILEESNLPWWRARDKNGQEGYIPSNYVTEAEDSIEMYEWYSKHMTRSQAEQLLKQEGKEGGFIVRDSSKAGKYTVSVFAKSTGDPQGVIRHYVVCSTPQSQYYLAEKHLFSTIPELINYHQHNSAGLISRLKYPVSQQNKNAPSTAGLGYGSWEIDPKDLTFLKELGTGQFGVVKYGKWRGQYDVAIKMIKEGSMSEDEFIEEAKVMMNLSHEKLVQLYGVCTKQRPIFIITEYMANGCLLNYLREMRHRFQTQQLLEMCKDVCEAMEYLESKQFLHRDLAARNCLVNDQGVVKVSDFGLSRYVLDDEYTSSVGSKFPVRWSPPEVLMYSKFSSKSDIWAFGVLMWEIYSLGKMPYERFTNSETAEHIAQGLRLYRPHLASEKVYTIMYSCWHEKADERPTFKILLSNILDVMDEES

The assay concerns the target BTK (Homo sapiens (Human), UniProt Q06187). The settings on record: read-out: BTK Inhibition.
Description: Btk kinase activity was determined using a homogenous time resolved fluorescence (HTRF) methodology. Measurements were performed in a reaction volume of 15 μL using 384-well assay plates. Kinase enzyme, inhibitor, ATP and 1 μM peptide substrate were incubated in a reaction buffer compose of Hepes50 mM (pH7.0), NaN3 0.02%, BSA 0.01%, Orthocanadate 0.1 mM. […] For each compound, enzyme activity as measured at various concentrations of compound, Negative control reactions were performed in the absence of inhibitor in two replicates and eight no enzyme controls were used to determine baseline fluorescence levels.
`C=CC(=O)N1CC[C@@H](c2nc(-c3ccc(Oc4cccc(OC)c4F)cc3)c3cncc(OCCN(C)C)n23)C1` [Example 89, (R)-1-(3-(5-(2-(dimethylamino)ethoxy)-1-(4-(2-fluoro-3-methoxyphenoxy)phenyl)imidazo[1,5-a]pyrazin-3-yl)pyrrolidin-1-yl)prop-2-en-1-one]: the IC50 was less than 10 nM.

Regarding `CC#CC(=O)N1CC[C@@H](c2nc(-c3ccc(Oc4cccc(OC)c4F)cc3)c3c(C)nccn23)C1` [Example 92, (R)-1-(3-(1-(4-(2-fluoro-3-methoxyphenoxy)phenyl)-8-methylimidazo[1,5-a]pyrazin-3-yl)pyrrolidin-1-yl)but-2-yn-1-one], the IC50 was less than 10 nM. To `CC#CC(=O)N1CC[C@@H](c2nc(-c3ccc(Oc4cccc(OC)c4F)cc3)c3cncc(OCC)n23)C1` [Example 93, (R)-1-(3-(5-ethoxy-1-(4-(2-fluoro-3-methoxyphenoxy)phenyl)imidazo[1,5-a]pyrazin-3-yl)pyrrolidin-1-yl)but-2-yn-1-one] belongs less than 10 nM; to `C=CC(=O)N1CC[C@@H](c2nc(-c3ccc(Oc4cccc(OC)c4F)cc3)c3cncc(OCC)n23)C1` [Example 94, (R)-1-(3-(5-ethoxy-1-(4-(2-fluoro-3-methoxyphenoxy)phenyl)imidazo[1,5-a]pyrazin-3-yl)pyrrolidin-1-yl)prop-2-en-1-one], less than 10 nM. Consider `C=CC(=O)N1CC[C@@H](c2nc(-c3ccc(Oc4cccc(OC)c4F)cc3)c3cncc(OCCC)n23)C1` [Example 95, (R)-1-(3-(1-(4-(2-fluoro-3-methoxyphenoxy)phenyl)-5-propoxyimidazo[1,5-a]pyrazin-3-yl)pyrrolidin-1-yl)prop-2-en-1-one], for which the IC50 is less than 10 nM. To `CC#CC(=O)N1CC[C@@H](c2nc(-c3ccc(Oc4cccc(OC)c4F)cc3)c3cncc(OCCC)n23)C1` [Example 96, (R)-1-(3-(1-(4-(2-fluoro-3-methoxyphenoxy)phenyl)-5-propoxyimidazo[1,5-a]pyrazin-3-yl)pyrrolidin-1-yl)but-2-yn-1-one] belongs less than 10 nM; to `CC#CC(=O)N1CC[C@@H](c2nc(-c3ccc(Oc4cccc(OC)c4F)cc3)c3cncc(OCCCC)n23)C1` [Example 97, (R)-1-(3-(5-butoxy-1-(4-(2-fluoro-3-methoxyphenoxy)phenyl)imidazo[1,5-a]pyrazin-3-yl)pyrrolidin-1-yl)but-2-yn-1-one], less than 10 nM. In the case of `C=CC(=O)N1CC[C@@H](c2nc(-c3ccc(Oc4cccc(OC)c4F)cc3)c3cncc(OC4CCOC4)n23)C1` (stereo partly drawn) [Example 98, 1-((3R)-3-(1-(4-(2-fluoro-3-methoxyphenoxy)phenyl)-5-((tetrahydrofuran-3-yl)oxy)imidazo[1,5-a]pyrazin-3-yl)pyrrolidin-1-yl)prop-2-en-1-one], the IC50 was less than 10 nM. To `C=CC(=O)N1CC[C@@H](c2nc(-c3ccc(Oc4cccc(OC)c4F)cc3)c3cncc(OC4CCC4)n23)C1` [Example 100, (R)-1-(3-(5-cyclobutoxy-1-(4-(2-fluoro-3-methoxyphenoxy)phenyl)imidazo[1,5-a]pyrazin-3-yl)pyrrolidin-1-yl)prop-2-en-1-one] belongs less than 10 nM.

Take `CCCCOc1cncc2c(-c3ccc(Oc4cccc(OC)c4F)cc3)nc([C@@H]3CCN(Cc4ccccc4)C3)n12` [Example 102, (R)-3-(1-benzylpyrrolidin-3-yl)-5-butoxy-1-(4-(2-fluoro-3-methoxyphenoxy)phenyl)imidazo[1,5-a]pyrazine]: the IC50 was greater than 10000 nM. `C=CC(=O)N1CC[C@@H](c2nc(-c3ccc(Oc4cccc(OC)c4F)cc3)c3cncc(OCCOC)n23)C1` [Example 104, (R)-1-(3-(1-(4-(2-fluoro-3-methoxyphenoxy)phenyl)-5-(2-methoxyethoxy)imidazo[1,5-a]pyrazin-3-yl)pyrrolidin-1-yl)prop-2-en-1-one]: the IC50 is less than 10 nM. In the case of `COc1cccc(Oc2ccc(-c3nc([C@@H]4CCN(C(=O)/C=C/CN(C)C5CC5)C4)n4ccnc(C)c34)cc2)c1F` [Example 105, (R,E)-4-(cyclopropyl(methyl)amino)-1-(3-(1-(4-(2-fluoro-3-methoxyphenoxy)phenyl)-8-methylimidazo[1,5-a]pyrazin-3-yl)pyrrolidin-1-yl)but-2-en-1-one] it was less than 10 nM. To `C=CC(=O)N1CC[C@@H](c2nc(-c3ccc(Oc4cccc(OC)c4F)cc3)c3c(CC)nccn23)C1` [Example 106, (R)-1-(3-(8-ethyl-1-(4-(2-fluoro-3-methoxyphenoxy)phenyl)imidazo[1,5-a]pyrazin-3-yl)pyrrolidin-1-yl)prop-2-en-1-one] belongs less than 10 nM; to `CC#CC(=O)N1CC[C@@H](c2nc(-c3ccc(Oc4cccc(OC)c4F)cc3)c3c(C(N)=O)nccn23)C1` [Example 108, (R)-3-(1-(but-2-ynoyl)pyrrolidin-3-yl)-1-(4-(2-fluoro-3-methoxyphenoxy)phenyl)imidazo[1,5-a]pyrazine-8-carboxamide], greater than 10000 nM; to `CC#CC(=O)N1CC[C@@H](c2nc(-c3ccc(Oc4cccc(OC)c4F)cc3)c3c(C(C)C)nccn23)C1` [Example 112, (R)-1-(3-(1-(4-(2-fluoro-3-methoxyphenoxy)phenyl)-8-isopropylimidazo[1,5-a]pyrazin-3-yl)pyrrolidin-1-yl)but-2-yn-1-one], greater than 10000 nM. As for `CC#CC(=O)N1CC[C@@H](c2nc(-c3ccc(Oc4cccc(OC)c4F)cc3)c3c(OC)nccn23)C1` [Example 116, (R)-1-(3-(1-(4-(2-fluoro-3-methoxyphenoxy)phenyl)-8-methoxyimidazo[1,5-a]pyrazin-3-yl)pyrrolidin-1-yl)but-2-yn-1-one], the IC50 was greater than 10000 nM. On to `CC#CC(=O)N1CCCC[C@H]1c1nc(-c2ccc(Oc3cccc(OC)c3F)cc2)c2c(C(F)(F)F)nccn12` [Example 122, (S)-1-(2-(1-(4-(2-fluoro-3-methoxyphenoxy)phenyl)-8-(trifluoromethyl)imidazo[1,5-a]pyrazin-3-yl)piperidin-1-yl)but-2-yn-1-one], for which the IC50 is greater than 10000 nM. On to `C=CC(=O)N1CCCC[C@H]1c1nc(-c2ccc(C(=O)Nc3ccccn3)cc2)c2c(C)nccn12` [Example 170, (S)-4-(3-(1-acryloylpiperidin-2-yl)-8-methylimidazo [1,5-a]pyrazin-1-yl)-N-(pyridin-2-yl)benzamide], for which the IC50 was less than 10 nM. To `C=CC(=O)N1CCC[C@H]1c1nc(-c2ccc(C(=O)Nc3ccccn3)cc2)c2c(C)ncc(C)n12` [Example 174, (S)-4-(3-(1-acryloylpyrrolidin-2-yl)-5,8-dimethylimidazo [1,5-a]pyrazin-1-yl)-N-(pyridin-2-yl)benzamide] belongs less than 10 nM; to `C=CC(=O)N1CCC[C@@H](c2nc(-c3ccc(C(=O)Nc4ccccn4)cc3)c3c(C)ncc(C)n23)C1` [Example 184, (R)-4-(3-(1-acryloylpiperidin-3-yl)-5,8-dimethylimidazo [1,5-a]pyrazin-1-yl)-N-(pyridin-2-yl)benzamide], less than 10 nM; to `C=CC(=O)N1CCC[C@H]1c1nc(-c2ccc(C(=O)Nc3ccccn3)cc2)c2c(C3CC3)nccn12` [Example 190, (S)-4-(3-(1-acryloylpyrrolidin-2-yl)-8-cyclopropylimidazo [1,5-a]pyrazin-l-yl)-N-(pyridin-2-yl)benzamide], greater than 10000 nM. Turning to `C=CC(=O)N1CCCC[C@H]1c1nc(-c2ccc(C(=O)Nc3ccccn3)cc2)c2c(C3CC3)nccn12` [Example 191, (S)-4-(3-(1-acryloylpiperidin-2-yl)-8-cyclopropylimidazo [1,5-a]pyrazin-1-yl)-N-(pyridin-2-yl)benzamide], the IC50 is greater than 10000 nM.

Consider `CC#CC(=O)N1CCCC[C@H]1c1nc(-c2ccc(C(=O)Nc3ccccn3)cc2)c2c(C3CC3)nccn12` [Example 192, (S)-4-(3-(1-(but-2-ynoyl)piperidin-2-yl)-8-cyclopropylimidazo[1,5-a]pyrazin-1-yl)-N-(pyridin-2-yl)benzamide], for which the IC50 is greater than 10000 nM. Take `C=CC(=O)N1CC[C@@H](c2nc(-c3ccc(C(=O)Nc4ccccn4)cc3)c3cncc(OCC)n23)C1` [Example 194, (R)-4-(3-(1-acryloylpyrrolidin-3-yl)-5-ethoxyimidazo [1,5-a]pyrazin-1-yl)-N-(pyridin-2-yl)benzamide]: the IC50 is less than 10 nM.

`C=CC(=O)N1CCCC[C@H]1c1nc(-c2ccc(C(=O)Nc3ccccn3)cc2)c2c(C(F)(F)F)nccn12` [Example 199, (S)-4-(3-(1-acryloylpiperidin-2-yl)-8-(trifluoromethyl)imidazo[1,5-a]pyrazin-1-yl)-N-(pyridin-2-yl)benzamide]: the IC50 was greater than 10000 nM. In the case of `CC#CC(=O)N1CCCC[C@H]1c1nc(-c2ccc(C(=O)Nc3ccccn3)cc2)c2c(C(F)(F)F)nccn12` [Example 200, (S)-4-(3-(1-(but-2-ynoyl)piperidin-2-yl)-8-(trifluoromethyl)imidazo [1,5-a]pyrazin-1-yl)-N-(pyridin-2-yl)benzamide], the IC50 is greater than 10000 nM. As for `CC#CC(=O)N1CCCC[C@H]1c1nc(-c2ccc(C(=O)Nc3cc(C(F)(F)F)ccn3)cc2)c2c(C(F)(F)F)nccn12` [Example 202, (S)-4-(3-(1-(but-2-ynoyl)piperidin-2-yl)-8-(trifluoromethyl)imidazo [1,5-a]pyrazin-1-yl)-N-(4-(trifluoromethyl)pyridin-2-yl)benzamide], the IC50 is greater than 10000 nM. To `C=CC(=O)N1CC[C@@H](c2nc(-c3ccc(C(=O)Nc4ccccn4)cc3)c3c(C)ncc(OCC)n23)C1` [Example 206, (R)-4-(3-(1-acryloylpyrrolidin-3-yl)-5-ethoxy-8-methylimidazo[1,5-a]pyrazin-1-yl)-N-(pyridin-2-yl)benzamide] belongs less than 10 nM; to `CN(C)C(=O)N1CCCC[C@H]1c1nc(-c2ccc(C(=O)Nc3ccccn3)cc2)c2c(C(F)(F)F)nccn12` [Example 215, (S)-N,N-dimethyl-2-(1-(4-(pyridin-2-ylcarbamoyl)phenyl)-8-(trifluoromethyl)imidazo [1,5-a]pyrazin-3-yl) piperidine-1-carboxamide], greater than 10000 nM; to `CN(C)C(=O)N1CCCC[C@H]1c1nc(-c2ccc(C(=O)Nc3cc(C(F)(F)F)ccn3)cc2)c2c(C(F)(F)F)nccn12` [Example 216, (S)-N,N-dimethyl-2-(8-(trifluoromethyl)-1-(4-((4-(trifluoromethyl)pyridin-2-yl)carbamoyl)phenyl)imidazo[1,5-a]pyrazin-3-yl)piperidine-1-carboxamide], greater than 10000 nM.
